Series [1] concerns insulin dependent diabetic patient. Description: Example 2: intramuscular depo-testosterone enanthate in an insulin dependent diabetic person. As to conditions: 150 mg intramuscularly three times weekly. It counts as in vivo, human. As to the method:
A. W. was a person who has been an insulin dependent diabetic for fifteen years. […] They were scheduled for amputation. They used 24 units of Humulin insulin in the morning and 16 units at night. Their fasting blood glucose was 334. Treated with 150 mg of depo-testosterone enanthate intramuscularly, three times weekly, they became euglycemic on less than 12 units daily; see FIG. 1. However, due to the infected heel ulcer, amputation proceeded.

For series [2], the system named is subject (tissue glucose stores). The experiment in a line: Example 5: intramuscular testosterone enanthate, Hemoglobin A1C. The class given is in vivo, human. The conditions noted are these: 9.9 in May. As to the method:
Testosterone enanthate 300 mg was given to a subject intramuscularly twice weekly for four weeks, then continued with therapy of 300 mg every two weeks.

For series [3], the system named is diabetic patient on oral hypoglycemic agents. The experiment in a line: Example 3: intramuscular depo-testosterone in a person on oral hypoglycemic agents. The class given is in vivo, human. The conditions noted are these: 250 mg intramuscularly three times weekly for four weeks. As to the method:
J. G. was a person on oral hypoglycemic agents for ten years. Present dosage was 20 mg/day, Micronase 7 (Upjohn). They presented with ulcerations in four areas of their left foot, no dorsal pedis pulsation, and was scheduled for amputation but refused. Fasting glucose was 244.

Series [4] has as its system insulin dependent diabetes mellitus patient. Description: Example 1: intramuscular aqueous testosterone in an insulin dependent diabetic person with gangrene. It counts as in vivo, human. The procedure:
C. W. was a person with a fifteen-year history of insulin dependent diabetes mellitus. They were hospitalized with gangrene of the middle finger of their right hand and was scheduled for amputation. They had already had bilateral femoral-popliteal bypass surgery for vascular insufficiency of the lower extremities. Due to anorexia, they were given an intramuscular injection of 200 mg of aqueous testosterone. Their fasting glucose fell from 212 to 159.

Series [5] relates to men with cluster headaches. The experiment in a line: Testosterone supplementation in men with cluster headaches and low Testosterone Ratio Test. The class given is in vivo, human. As to conditions: two men; supplementation to therapeutic levels at the normal male maximum.
Series [6] concerns patient with uncontrolled diabetes. The experiment in a line: Example 4: testosterone subcutaneous pellets in a person with uncontrolled diabetes. The class given is in vivo, human. As to conditions: 250 to 900 mg subcutaneous pellets every six weeks over six months, before: 100 units of Humulin. As to the method: G. S. was a person with uncontrolled diabetes for ten years. Seen intermittently for ulceration of the feet, they presented with a serum glucose of 550 while on 100 units of Humulin. They refused admission to the hospital.
Over the course of six months, […] received 250 to 900 mg of […] testosterone subcutaneous pellets every six (6) weeks. […] insulin requirements were reduced 35 units while […] serum glucose remained stable at 140 to 180 mg/dl; see FIG. 3.

The target in series [7] is T1, sex hormone-binding globulin (Homo sapiens, UniProt P04278).
T1 sequence (P04278 30-402): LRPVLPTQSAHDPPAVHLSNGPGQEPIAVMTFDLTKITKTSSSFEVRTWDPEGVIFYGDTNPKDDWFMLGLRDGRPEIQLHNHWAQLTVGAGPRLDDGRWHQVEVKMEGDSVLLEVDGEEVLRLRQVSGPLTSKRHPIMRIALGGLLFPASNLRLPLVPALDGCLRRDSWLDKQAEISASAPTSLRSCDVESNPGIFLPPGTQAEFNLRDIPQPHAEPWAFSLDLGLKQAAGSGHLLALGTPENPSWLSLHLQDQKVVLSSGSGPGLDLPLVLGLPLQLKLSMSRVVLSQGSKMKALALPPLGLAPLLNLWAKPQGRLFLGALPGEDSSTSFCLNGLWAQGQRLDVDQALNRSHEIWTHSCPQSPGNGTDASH
The conditions noted are these: readily reversible at 37° C.; cited from earlier work.

The next series concerns menopausal women. The conditions noted are these: cited from earlier work.
For a further series, the system named is rats. More on the design: dose or concentration left out as unconfirmed. As to conditions: female rats, high dose, cited from earlier work.
For series [8] the following is noted: cited from earlier work.

As for `CCCCCCC(=O)O[C@H]1CC[C@H]2[C@@H]3CCC4=CC(=O)CC[C@]4(C)[C@H]3CC[C@]12C` [Testosterone enanthate], the insulin requirement daily entry in [1] (before: 24 units morning and 16 units at night) is recorded as “less than 12 units”. The glycemic status entry in series [1] (person, fasting blood glucose before 334) is listed as “euglycemic”; in series [3] (person, fasting glucose before 244), “euglycemic”. For the same molecule, the “Hemoglobin A1C” value was 7.2 in series [2] (August, 1998, 300 mg intramuscularly twice weekly for four weeks then every two weeks) and 5.5 in series [2] (October, 1998, 300 mg intramuscularly twice weekly for four weeks then every two weeks). For the same molecule, the “use of oral hypoglycemic agents” value in [3] (before: Micronase 20 mg/day) is “discontinuing their oral agents”.
`C[C@]12CC[C@H]3[C@@H](CCC4=CC(=O)CC[C@@]43C)[C@@H]1CC[C@@H]2O` [testosterone]: in series [4] (amputation made unnecessary), the “healing of gangrenous finger” value is “healed completely in two months”. Further, the fasting glucose in series [4] (person, after intramuscular injection of 200 mg, fell from 212) turned out to be 159. Besides, the serum glucose outcome in [4] (repeated dosing every other day for one week) was “normalization of their serum glucose”. Besides, the “insulin requirement (Humulin daily)” value in [4] (repeated dosing every other day for one week, decrease from 44 units) was 24 units. In series [5], the cluster headaches/migraines result is reported as “complete absence of cluster headaches/migraines for two years”. This molecule returned an insulin requirements reduced in series [6] of 35 units. For the same molecule, the “binding affinity K” value in [7] was “approximately 10^9 M^−1”.
estrogen: in the series with menopausal women, the “reduction of cardiovascular disease mortality” value is “fifty percent”.
With `Cc1c(C)c2c(c(C)c1O)CCC(C)(COc1ccc(CC3SC(=O)NC3=O)cc1)O2` (stereo not drawn) [troglitazone], in the series on rats (daily for 104 weeks, dose associated with excessive mortality), the sarcomatous tumors result is recorded as “statistically significant increase in sarcomatous tumors”. Moreover, the “exposure relative to estimated human exposure of parent compound” value in the series with rats was 47 fold. For the same molecule, in series [8] (as reported to date), the side effects result is “abnormal liver function tests, jaundice, drop in white blood cell count and drop in hemoglobin which may persist for two years”. For the same molecule, in series [8] (oral contraceptives, terfenadine, and choleslyramine), the “lowering of effective blood level of co-administered drugs” value was “up to 30%”.

Values taken from patent US20020061869A1, “Free insulin testosterone test” (priority 1998, published 2002).
